{
  "source": "ChEMBL document CHEMBL3351613",
  "about": "“Indolylarylsulfones carrying a heterocyclic tail as very potent and broad spectrum HIV-1 non-nucleoside reverse transcriptase inhibitors” (J Med Chem, 2014)",
  "key": {"[1]": {"system": "Human immunodeficiency virus 1", "format": "functional, organism-based", "settings": "Human immunodeficiency virus 1, NL4-3, MT4"}, "[2]": {"system": "Human immunodeficiency virus 1", "test": "Antiviral activity against HIV1 Clade C (DJ259) infected in human PBMC assessed as reduction in p24 antigen production", "format": "functional, organism-based", "settings": "Human immunodeficiency virus 1, Clade C (DJ259)"}, "[3]": {"test": "Drug retention assessed as membrane retention by PAMPA method", "format": "physicochemical"}, "[4]": {"system": "Human immunodeficiency virus 1", "test": "Antiviral activity against HIV1 Clade D (UG270) infected in human PBMC assessed as reduction in p24 antigen production", "format": "functional, organism-based", "settings": "Human immunodeficiency virus 1, Clade D (UG270)"}, "[5]": {"target": "T1, Human immunodeficiency virus type 1 reverse transcriptase (Human immunodeficiency virus 1, UniProt Q72547)", "description": "Inhibition of wild type HIV1 reverse transcriptase assessed as reduction in enzyme activity"}, "[6]": {"test": "Permeability by PAMPA method", "format": "ADME"}, "[7]": {"system": "Human immunodeficiency virus 1", "test": "Antiviral activity against HIV1 Clade B (BaL) infected in human PBMC assessed as reduction in p24 antigen production", "format": "functional, organism-based", "settings": "Human immunodeficiency virus 1, Clade B (BaL)"}, "[8]": {"target": "Human immunodeficiency virus type 1 reverse transcriptase (Human immunodeficiency virus 1, UniProt Q72547, V106A)", "test": "Inhibition of […] HIV1 reverse transcriptase V106A mutant assessed as reduction in enzyme activity"}, "[9]": {"test": "Stability in human plasma assessed as remaining unmodified parent compound level after 24 hrs", "format": "ADME, cell-free", "settings": "read-out: Stability"}, "[10]": {"system": "Human immunodeficiency virus 1", "format": "functional, organism-based", "settings": "Human immunodeficiency virus 1, NL4-3, MT4", "remark": "listed apart in the source"}, "Plasma": {"system": "Plasma", "test": "Stability in human plasma assessed as compound hydrolysis after 24 hrs", "format": "ADME, cell-free"}, "[11]": {"system": "Human immunodeficiency virus 1", "test": "Antiviral activity against HIV1 Clade F (BZ162) infected in human PBMC assessed as reduction in p24 antigen production", "format": "functional, organism-based", "settings": "Human immunodeficiency virus 1, Clade F (BZ162)"}, "[12]": {"system": "Human immunodeficiency virus 1", "test": "Antiviral activity against HIV1 Clade A (UG273) infected in human PBMC assessed as reduction in p24 antigen production", "format": "functional, organism-based", "settings": "Human immunodeficiency virus 1, Clade A (UG273)"}, "[13]": {"system": "Human immunodeficiency virus 2", "test": "Antiviral activity against HIV2 ROD infected in human PBMC cells assessed as reduction in p24 antigen production", "format": "functional, organism-based", "settings": "ISOLATE ROD"}, "[14]": {"target": "Human immunodeficiency virus type 1 reverse transcriptase (Human immunodeficiency virus 1, UniProt Q72547, K103N)", "description": "Inhibition of wild type HIV1 reverse transcriptase K103N mutant assessed as reduction in enzyme activity"}, "[15]": {"system": "Human immunodeficiency virus 1", "format": "functional, organism-based", "settings": "Human immunodeficiency virus 1, NL4-3, MT4", "remark": "listed apart in the source"}, "[16]": {"system": "Human immunodeficiency virus 1", "test": "Antiviral activity against HIV1 NL4-3 infected in human MT4 cells assessed as reduction in virus-induced cell death by MTT assay", "format": "functional, organism-based", "settings": "Human immunodeficiency virus 1, NL4-3, MT4"}, "[17]": {"system": "Human immunodeficiency virus 1", "test": "Antiviral activity against HIV1 Clade A/E (ID12) infected in human PBMC assessed as reduction in p24 antigen production", "format": "functional, organism-based", "settings": "Human immunodeficiency virus 1, Clade A/E (ID12)"}, "[18]": {"system": "Human immunodeficiency virus 1", "test": "Antiviral activity against HIV1 Clade G (HH8793) infected in human PBMC assessed as reduction in p24 antigen production", "format": "functional, organism-based", "settings": "Human immunodeficiency virus 1, Clade G (HH8793)"}, "[19]": {"target": "T1, Human immunodeficiency virus type 1 reverse transcriptase", "remark": "listed apart in the source"}, "[20]": {"target": "Human immunodeficiency virus type 1 reverse transcriptase (Human immunodeficiency virus 1, UniProt Q72547, L100I)", "description": "Inhibition of wild type HIV1 reverse transcriptase L100I mutant assessed as reduction in enzyme activity"}},
  "note": "Activity calls are given as the source filed them. No cut-off for these calls is given here.",
  "data": [
    {"smiles": "Cc1cc(C)cc(S(=O)(=O)c2c(C(=O)N[C@H](C)c3ccncc3)[nH]c3ccc(Cl)cc23)c1", "values": [
      {"measurement": "EC50", "setting": "[1]", "result": 150, "unit": "nM"},
      {"measurement": "EC50", "setting": "[2]", "result": 0.7, "unit": "nM"},
      {"measurement": "Drug uptake", "setting": "[3]", "result": 0, "unit": "%"},
      {"measurement": "EC50", "setting": "[4]", "result": 1.8, "unit": "nM"},
      {"measurement": "IC50", "setting": "[5]", "result": 18, "unit": "nM"},
      {"measurement": "Papp", "setting": "[6]", "result": 12.4, "unit": "×10⁻⁶ cm/s"},
      {"measurement": "EC50", "setting": "[7]", "result": 2.1, "unit": "nM"},
      {"measurement": "IC50", "setting": "[8]", "result": 26, "unit": "nM"},
      {"measurement": "remaining at 24 h", "setting": "[9]", "result": 99, "unit": "%"},
      {"measurement": "EC50", "setting": "[10]", "result": 933, "unit": "nM"},
      {"measurement": "Stability", "setting": "Plasma", "result": "Stable"},
      {"measurement": "EC50", "setting": "[11]", "result": 1.6, "unit": "nM"},
      {"measurement": "EC50", "setting": "[12]", "result": 3.4, "unit": "nM"},
      {"measurement": "Activity", "setting": "[13]", "result": "inactive"},
      {"measurement": "IC50", "setting": "[14]", "result": 50, "unit": "nM"},
      {"measurement": "EC50", "setting": "[15]", "result": 2.1, "unit": "nM"},
      {"measurement": "EC50", "setting": "[16]", "result": 0.2, "unit": "nM"},
      {"measurement": "EC50", "setting": "[17]", "result": 1.2, "unit": "nM"},
      {"measurement": "EC50", "setting": "[18]", "result": 1.7, "unit": "nM"},
      {"measurement": "IC50", "setting": "[19]", "result": 2230, "unit": "nM"},
      {"measurement": "IC50", "setting": "[20]", "result": 3, "unit": "nM"}
    ]}
  ]
}
